# In ChEMBL document CHEMBL4219205, “Utilizing a structure-based docking approach to develop potent G protein-coupled receptor kinase (GRK) 2 and 5 inhibitors” (Bioorg Med Chem Lett, 2018):
# Assays:
# Rhodopsin kinase GRK1 = target: T1, Rhodopsin kinase GRK1 (Homo sapiens, UniProt Q15835); experiment: Inhibition of GRK1 (unknown origin) preincubated for 10 mins followed by peptide substrate and ATP addition measured after 1 hr by TR-FRET assay
# T1 sequence (Q15835 whole entry): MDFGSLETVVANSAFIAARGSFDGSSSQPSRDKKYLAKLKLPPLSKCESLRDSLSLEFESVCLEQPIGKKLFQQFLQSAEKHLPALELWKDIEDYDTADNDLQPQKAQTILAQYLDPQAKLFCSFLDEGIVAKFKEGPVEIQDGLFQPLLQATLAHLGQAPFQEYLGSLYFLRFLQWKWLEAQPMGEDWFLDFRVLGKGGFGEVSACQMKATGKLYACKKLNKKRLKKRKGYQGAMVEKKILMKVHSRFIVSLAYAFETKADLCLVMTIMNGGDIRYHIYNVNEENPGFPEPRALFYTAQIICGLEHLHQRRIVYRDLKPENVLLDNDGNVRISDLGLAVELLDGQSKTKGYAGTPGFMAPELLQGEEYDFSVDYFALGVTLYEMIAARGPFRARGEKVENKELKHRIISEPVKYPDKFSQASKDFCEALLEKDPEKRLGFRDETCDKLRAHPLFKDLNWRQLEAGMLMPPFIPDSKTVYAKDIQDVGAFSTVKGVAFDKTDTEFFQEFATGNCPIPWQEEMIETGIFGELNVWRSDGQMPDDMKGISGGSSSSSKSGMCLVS
# [1] = target: T2, Beta-adrenergic receptor kinase 1 (Homo sapiens, UniProt P25098); experiment: Inhibition of GRK2 (unknown origin) preincubated for 10 mins followed by peptide substrate and ATP addition measured after 1 hr by TR-FRET assay
# T2 sequence (P25098 whole entry): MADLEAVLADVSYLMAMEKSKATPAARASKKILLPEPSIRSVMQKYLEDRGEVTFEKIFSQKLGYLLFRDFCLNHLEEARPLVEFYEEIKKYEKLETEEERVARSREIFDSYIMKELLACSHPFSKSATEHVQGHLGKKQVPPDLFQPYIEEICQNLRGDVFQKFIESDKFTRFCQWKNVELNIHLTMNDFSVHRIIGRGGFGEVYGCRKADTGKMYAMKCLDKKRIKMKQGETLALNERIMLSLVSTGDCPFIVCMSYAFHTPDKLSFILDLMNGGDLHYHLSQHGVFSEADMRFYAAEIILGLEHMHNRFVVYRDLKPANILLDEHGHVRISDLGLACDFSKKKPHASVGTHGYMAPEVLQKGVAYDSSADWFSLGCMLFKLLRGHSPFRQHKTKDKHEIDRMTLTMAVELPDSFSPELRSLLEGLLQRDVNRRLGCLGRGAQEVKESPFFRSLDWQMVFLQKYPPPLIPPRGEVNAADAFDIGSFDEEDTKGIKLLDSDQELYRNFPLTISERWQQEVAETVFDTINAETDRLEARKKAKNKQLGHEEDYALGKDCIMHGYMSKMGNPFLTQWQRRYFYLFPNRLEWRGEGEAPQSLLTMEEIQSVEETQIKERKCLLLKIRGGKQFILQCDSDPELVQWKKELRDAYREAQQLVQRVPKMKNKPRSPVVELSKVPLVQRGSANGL
# [2] = target: G protein-coupled receptor kinase 5 (Homo sapiens, UniProt P34947); experiment: Inhibition of GRK5 (unknown origin) preincubated for 10 mins followed by peptide substrate and ATP addition measured after 1 hr by TR-FRET assay
# Chain of G protein-coupled receptor kinase 5 (P34947 whole entry): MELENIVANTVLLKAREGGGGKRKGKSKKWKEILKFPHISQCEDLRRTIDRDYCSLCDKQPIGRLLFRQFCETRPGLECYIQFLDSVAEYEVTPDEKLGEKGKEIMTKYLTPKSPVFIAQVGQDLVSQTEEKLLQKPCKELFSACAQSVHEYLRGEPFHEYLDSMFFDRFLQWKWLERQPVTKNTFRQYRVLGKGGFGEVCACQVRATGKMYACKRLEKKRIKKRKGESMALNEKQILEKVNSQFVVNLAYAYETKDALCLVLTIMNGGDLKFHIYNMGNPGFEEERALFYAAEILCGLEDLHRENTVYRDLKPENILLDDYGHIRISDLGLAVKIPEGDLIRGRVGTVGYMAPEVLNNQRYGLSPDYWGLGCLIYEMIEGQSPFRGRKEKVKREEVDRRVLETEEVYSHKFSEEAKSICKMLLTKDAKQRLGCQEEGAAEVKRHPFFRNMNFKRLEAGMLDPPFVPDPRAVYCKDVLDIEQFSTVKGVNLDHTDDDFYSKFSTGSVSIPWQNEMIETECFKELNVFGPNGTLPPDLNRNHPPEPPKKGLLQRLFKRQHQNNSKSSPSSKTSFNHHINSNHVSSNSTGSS
# Homo sapiens = species: Homo sapiens; experiment: Selectivity ratio of IC50 for GRK5 (unknown origin) to IC50 for GRK2 (unknown origin) by phosphorylation assay
Structure (SMILES),IC50 (Rhodopsin kinase GRK1) [µM],IC50 [1] [µM],IC50 [2] [µM],Ratio IC50 (Homo sapiens)
CC1=C(C(=O)Nc2ccc3[nH]ncc3c2)C(c2ccc(F)c(CC(=O)N3CCC4CCC(C3)N4C)c2)NC(=O)N1 (stereo not drawn),> 100,2.1,6.1,–
COC(=O)C1(NC(=O)c2cc(C3NC(=O)NC(C)=C3C(=O)Nc3ccc4[nH]ncc4c3)ccc2F)CCCCC1 (stereo not drawn),83,0.16,–,–
CC1=C(C(=O)Nc2ccc3[nH]ncc3c2)C(c2ccc(F)c(CC(=O)N3Cc4ccc(C)cc4C3)c2)NC(=O)N1 (stereo not drawn),> 100,0.2,6.3,–
CC1=C(C(=O)Nc2ccc3[nH]ncc3c2)C(c2ccc(F)c(C(=O)NCc3cn4ccccc4n3)c2)NC(=O)N1 (stereo not drawn),17,0.54,1.9,3.5
CC1=C(C(=O)Nc2ccc3[nH]ncc3c2)C(c2ccc(F)c(C(=O)NC3CN4CCC3CC4)c2)NC(=O)N1 (stereo not drawn),> 100,0.5,–,–
CC1=C(C(=O)Nc2ccc3[nH]ncc3c2)C(c2ccc(F)c(C(=O)NCc3cnc4c(c3)CCC4)c2)NC(=O)N1 (stereo not drawn),> 100,0.34,9.5,–
CC1=C(C(=O)Nc2ccc3[nH]ncc3c2)C(c2ccc(F)c(C(=O)N(C)Cc3cc(C)[nH]n3)c2)NC(=O)N1 (stereo not drawn),> 100,1.1,–,–
CCC(C)CN(CCO)C(=O)Cc1cc(C2NC(=O)NC(C)=C2C(=O)Nc2ccc3[nH]ncc3c2)ccc1F (stereo not drawn),> 100,0.83,9.3,–
COCc1noc(CNC(=O)c2cc(C3NC(=O)NC(C)=C3C(=O)Nc3ccc4[nH]ncc4c3)ccc2F)n1 (stereo not drawn),30,0.25,–,–
CC1=C(C(=O)Nc2ccc3[nH]ncc3c2)C(c2ccc(F)c(CC(=O)NC3CC(=O)N(C)C3)c2)NC(=O)N1 (stereo not drawn),> 100,1.9,–,–
CC1=C(C(=O)Nc2ccc3[nH]ncc3c2)C(c2ccc(F)c(CCC(=O)NCC3(C)CCCCC3)c2)NC(=O)N1 (stereo not drawn),> 100,1.8,> 100,–
CC1=C(C(=O)Nc2ccc3[nH]ncc3c2)C(c2ccc(F)c(C(=O)NC(C)CCCC(C)C)c2)NC(=O)N1 (stereo not drawn),> 100,4.1,> 100,–
CC1=C(C(=O)Nc2ccc3[nH]ncc3c2)C(c2ccc(F)c(CC(=O)N(CCO)CCC(C)C)c2)NC(=O)N1 (stereo not drawn),> 100,1.5,–,–
COc1ccccc1C(C)NC(=O)c1cc(C2NC(=O)NC(C)=C2C(=O)Nc2ccc3[nH]ncc3c2)ccc1F (stereo not drawn),16,0.4,–,–
CC1=C(C(=O)Nc2ccc3[nH]ncc3c2)C(c2ccc(F)c(CCC(=O)NCCc3ccccc3)c2)NC(=O)N1 (stereo not drawn),> 100,4.7,> 100,–
COCCCC1CCCCN1C(=O)c1cc(C2NC(=O)NC(C)=C2C(=O)Nc2ccc3[nH]ncc3c2)ccc1F (stereo not drawn),> 100,29,> 100,–
CC1=C(C(=O)Nc2ccc3[nH]ncc3c2)C(c2ccc(F)c(C(=O)NCCc3c(C)noc3C)c2)NC(=O)N1 (stereo not drawn),> 100,0.64,–,–
CCCCCCC(C)NC(=O)c1cc(C2NC(=O)NC(C)=C2C(=O)Nc2ccc3[nH]ncc3c2)ccc1F (stereo not drawn),> 100,4.1,–,–
CC1=C(C(=O)Nc2ccc3[nH]ncc3c2)C(c2ccc(F)c(CCC(=O)N(CC(C)C)C(C)C)c2)NC(=O)N1 (stereo not drawn),> 100,12,> 100,–
CC1=C(C(=O)Nc2ccc3[nH]ncc3c2)C(c2ccc(F)c(CC(=O)N(CCO)Cc3ccco3)c2)NC(=O)N1 (stereo not drawn),26,0.46,1.7,–
CC1=C(C(=O)Nc2ccc3[nH]ncc3c2)C(c2ccc(F)c(C(=O)N(C)CC3CCCCO3)c2)NC(=O)N1 (stereo not drawn),> 100,14,> 100,–
CC1=C(C(=O)Nc2ccc3[nH]ncc3c2)C(c2ccc(F)c(CC(=O)NCc3ccc(C#N)nc3)c2)NC(=O)N1 (stereo not drawn),> 100,1.4,–,–
CC1=C(C(=O)Nc2ccc3[nH]ncc3c2)C(c2ccc(F)c(CC(=O)NCC3CCN(C4CC4)CC3)c2)NC(=O)N1 (stereo not drawn),> 100,–,–,–
CC1=C(C(=O)Nc2ccc3[nH]ncc3c2)C(c2ccc(F)c(CCC(=O)NCc3ncc(C)o3)c2)NC(=O)N1 (stereo not drawn),> 100,–,–,–
CCCOC1CCN(C(=O)Cc2cc(C3NC(=O)NC(C)=C3C(=O)Nc3ccc4[nH]ncc4c3)ccc2F)C1 (stereo not drawn),> 100,1.6,–,–
CC1=C(C(=O)Nc2ccc3[nH]ncc3c2)C(c2ccc(F)c(CCC(=O)NCC3(CO)CC3)c2)NC(=O)N1 (stereo not drawn),> 100,3.8,> 100,–

# Continued, in another order:
IC50 (Rhodopsin kinase GRK1) [µM],IC50 [1] [µM],IC50 [2] [µM],Structure (SMILES),Ratio IC50 (Homo sapiens)
> 100,0.92,3.5,C#CCN(Cc1ccco1)C(=O)Cc1cc(C2NC(=O)NC(C)=C2C(=O)Nc2ccc3[nH]ncc3c2)ccc1F (stereo not drawn),–
> 100,0.43,2.4,CC#CCN(CCCC)C(=O)Cc1cc(C2NC(=O)NC(C)=C2C(=O)Nc2ccc3[nH]ncc3c2)ccc1F (stereo not drawn),–
> 100,0.75,–,CC1=C(C(=O)Nc2ccc3[nH]ncc3c2)C(c2ccc(F)c(CC(=O)N(CCCO)CCCO)c2)NC(=O)N1 (stereo not drawn),–
> 100,1.9,–,CCC(C)N(CO)C(=O)Cc1cc(C2NC(=O)NC(C)=C2C(=O)Nc2ccc3[nH]ncc3c2)ccc1F (stereo not drawn),–
> 100,29,> 100,CCC1(O)CCCN(C(=O)CCc2cc(C3NC(=O)NC(C)=C3C(=O)Nc3ccc4[nH]ncc4c3)ccc2F)C1 (stereo not drawn),–
> 100,1.9,> 100,CC1=C(C(=O)Nc2ccc3[nH]ncc3c2)C(c2ccc(F)c(CC(=O)NCc3cc(C)ccc3C)c2)NC(=O)N1 (stereo not drawn),–
> 100,4.6,> 100,CC1=C(C(=O)Nc2ccc3[nH]ncc3c2)C(c2ccc(F)c(C(=O)NC3CC4CCC3(C)C4(C)C)c2)NC(=O)N1 (stereo not drawn),–
> 100,2.4,13,C#CCN(CC(C)C)C(=O)Cc1cc(C2NC(=O)NC(C)=C2C(=O)Nc2ccc3[nH]ncc3c2)ccc1F (stereo not drawn),–
3,–,–,CCc1nc(CNC(=O)c2cc(C3NC(=O)NC(C)=C3C(=O)Nc3ccc4[nH]ncc4c3)ccc2F)no1 (stereo not drawn),–
> 100,44,> 100,CCC(C)N(C)C(=O)c1cc(C2NC(=O)NC(C)=C2C(=O)Nc2ccc3[nH]ncc3c2)ccc1F (stereo not drawn),–
> 100,2,–,CC1=C(C(=O)Nc2ccc3[nH]ncc3c2)C(c2ccc(F)c(CC(=O)N(C)Cc3nc(C)c[nH]3)c2)NC(=O)N1 (stereo not drawn),–
> 100,–,–,CC1=C(C(=O)Nc2ccc3[nH]ncc3c2)C(c2ccc(F)c(CC(=O)N3CCOC(CCO)C3)c2)NC(=O)N1 (stereo not drawn),–
> 100,3.5,> 100,CC1=C(C(=O)Nc2ccc3[nH]ncc3c2)C(c2ccc(F)c(CC(=O)N3CCCC(C(C)(C)C)CC3)c2)NC(=O)N1 (stereo not drawn),–
> 100,1.2,–,CC1=C(C(=O)Nc2ccc3[nH]ncc3c2)C(c2ccc(F)c(C(=O)NCC(C)N3CCCCCC3)c2)NC(=O)N1 (stereo not drawn),–
